Laboratory results taken from ChEMBL document CHEMBL1201862, “PubChem BioAssay data set” (2004).
Activity calls are given as the source filed them.

Legend:
[1] = test system: Streptococcus sp. 'group A'; test: growth inhibition of control SK(-) GAS strain, dose response, counter-screen for streptokinase expression inhibitor project, luminescence, kanamycin, BacTiterGlo, confirmation (AID 1900); format: functional, organism-based
[2] = target: Serine/threonine-protein phosphatase PP1-alpha catalytic subunit (Homo sapiens, UniProt P62136); test: PP1 phosphatase inhibitors, dose response, biochemical, fluorescence (AID 2403);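 further: phosphatase turnover of OMFP into fluorescent 3-O-methylfluorescein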
[3] = inhibitors of intracellular T. cruzi replication, confirmation, NIH3T3 host cells, beta-gal luminescence (AID 2044); format: functional, cell-based;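 further: intracellular parasites grown in NIH/3T3 mouse fibroblasts as host cells; luminescent beta-galactosidase reporter signal from transgenic T. cruzi replicating inside host cells; inhibitors lower the luminescence signal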
[4] = target: T1, Serine/threonine-protein phosphatase (Homo sapiens, UniProt Q9BPW0); test: Counterscreen for inhibitors of PP1: fluorescence-based biochemical high throughput dose response assay to identify inhibitors of Protein Phosphatase 5 (PP5). [Related pubchem assays: 2034 (Summary (PP5 inhibitors)), 1987 (PP5 inhibitors in singlate), 2235 (PP1 inhibitors in singlate)]
T1 sequence (Q9BPW0 whole entry): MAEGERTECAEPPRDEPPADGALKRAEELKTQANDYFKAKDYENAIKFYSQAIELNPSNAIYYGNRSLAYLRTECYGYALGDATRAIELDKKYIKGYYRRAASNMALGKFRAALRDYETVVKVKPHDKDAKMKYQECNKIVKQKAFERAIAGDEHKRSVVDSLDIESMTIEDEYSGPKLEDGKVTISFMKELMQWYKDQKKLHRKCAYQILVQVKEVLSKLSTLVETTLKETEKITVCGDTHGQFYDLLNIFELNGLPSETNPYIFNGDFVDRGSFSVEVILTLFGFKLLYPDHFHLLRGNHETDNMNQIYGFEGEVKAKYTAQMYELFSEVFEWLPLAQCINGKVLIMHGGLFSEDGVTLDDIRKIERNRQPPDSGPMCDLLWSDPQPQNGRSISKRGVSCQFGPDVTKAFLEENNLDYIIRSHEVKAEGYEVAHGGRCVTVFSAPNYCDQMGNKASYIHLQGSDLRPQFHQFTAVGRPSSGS

[5] = cytotoxicity toward NIH3T3 fibroblasts, dose response, counter-screen, cell-based, ATP luminescence, mouse fibroblasts (AID 2010); format: functional;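 further: cells exposed to compound for about 90 hours before reading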
Streptococcus = test: Group A Streptococcus viability loss, dose response, counter-screen for streptokinase expression inhibitor project, luminescence, BacTiterGlo (AID 1915); format: functional, organism-based;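 further: potency for reduction of bacterial viability or growth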
INS1 = test: beta cell apoptosis inhibitors, cytokine rescue, dose response, luminescence, retest (AID 449756); format: functional, cell-based; conditions: Rattus norvegicus;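 further: cell death triggered by IL-1 beta plus TNF-alpha plus IFN-gamma mixture; protective hits raise ATP signal compared with cytokine alone wells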
Aspartyl aminopeptidase = Aspartyl aminopeptidase (Plasmodium falciparum 3D7, UniProt Q8I2J3)
Procathepsin L = Procathepsin L (Homo sapiens, UniProt P07711)
[6] = target: T2, Rac GTPase-activating protein 1 (Homo sapiens, UniProt Q9H0H5); test: MgcRacGAP GTPase-activating activity inhibitors, confirmation, biochemical, ADP Hunter fluorescence, primary and confirmatory (AID 624330); format: functional
T2 sequence (Q9H0H5 whole entry): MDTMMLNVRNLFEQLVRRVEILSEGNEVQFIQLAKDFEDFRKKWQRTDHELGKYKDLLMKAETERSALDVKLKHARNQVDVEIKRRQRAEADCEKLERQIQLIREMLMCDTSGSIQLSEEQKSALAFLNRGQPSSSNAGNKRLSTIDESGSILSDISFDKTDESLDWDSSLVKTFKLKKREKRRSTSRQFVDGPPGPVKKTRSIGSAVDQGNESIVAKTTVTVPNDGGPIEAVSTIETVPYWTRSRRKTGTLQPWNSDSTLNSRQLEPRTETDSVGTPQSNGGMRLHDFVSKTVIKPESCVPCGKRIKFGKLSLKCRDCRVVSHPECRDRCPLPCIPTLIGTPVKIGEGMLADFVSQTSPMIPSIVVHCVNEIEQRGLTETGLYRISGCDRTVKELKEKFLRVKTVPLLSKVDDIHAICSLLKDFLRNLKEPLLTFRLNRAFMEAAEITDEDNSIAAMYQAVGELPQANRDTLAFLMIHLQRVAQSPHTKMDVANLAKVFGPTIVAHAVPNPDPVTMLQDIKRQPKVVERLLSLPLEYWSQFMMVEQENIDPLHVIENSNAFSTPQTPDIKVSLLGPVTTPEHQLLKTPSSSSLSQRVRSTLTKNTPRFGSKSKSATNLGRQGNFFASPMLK

[7] = growth suppression of PTEN-null colon cells, dose response, cell-based, HCT116 PTEN knockout (AID 1047); format: functional;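 further: HCT116 colon tumor cells with PTEN knocked out; cells exposed to compound for 60 hours before readout; potency for loss of cell viability measured by luminescence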
[8] = growth suppression of beta-catenin-knockout colon cells, dose response, cell-based, HCT116, human colon tumor (AID 1045); format: functional;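 further: HCT116 colon tumor cells with beta catenin knocked out; cells exposed to compound for 60 hours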
[9] = target: T3, Heat shock factor protein 1 (Mus musculus, UniProt P38532); test: HSF1 potentiators in luciferase reporter cells, confirmation, cell-based, NIH3T3, luminescence, dose retest (AID 435004); format: functional;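 further: stress induced by proteasome inhibitor MG132 added 30 min after compound; luciferase reporter driven by HSF1 response element in NIH3T3 cells; actives raise luminescence as potentiators of the MG132 stress response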
T3 sequence (P38532 whole entry): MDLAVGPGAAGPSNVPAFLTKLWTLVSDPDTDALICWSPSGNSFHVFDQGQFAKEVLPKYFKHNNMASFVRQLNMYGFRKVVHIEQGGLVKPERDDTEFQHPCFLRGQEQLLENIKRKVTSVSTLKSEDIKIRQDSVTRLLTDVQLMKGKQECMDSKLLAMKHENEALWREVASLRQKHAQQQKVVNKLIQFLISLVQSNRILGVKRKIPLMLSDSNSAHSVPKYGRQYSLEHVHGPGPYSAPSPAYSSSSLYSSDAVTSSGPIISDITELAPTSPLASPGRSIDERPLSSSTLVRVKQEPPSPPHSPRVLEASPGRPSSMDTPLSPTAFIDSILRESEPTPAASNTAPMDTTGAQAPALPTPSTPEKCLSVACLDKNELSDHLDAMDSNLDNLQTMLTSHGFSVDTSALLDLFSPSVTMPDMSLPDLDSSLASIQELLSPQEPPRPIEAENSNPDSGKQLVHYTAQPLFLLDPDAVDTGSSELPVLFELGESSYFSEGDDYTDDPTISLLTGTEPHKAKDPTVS

[10] = cytotoxicity in HEK-293T cells, dose response, cytotoxicity control for BCR NF-kB inhibitor project, luminescence, B-cell screen hits (AID 489021); format: functional, cell-based;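 further: HEK-293T cells carrying an NF-kB luciferase reporter; cells exposed to compound for about 14 hours before viability readout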
Protein Rev = Protein Rev (Human immunodeficiency virus type 1 group M subtype B (isolate HXB2)(HIV-1), UniProt P04618); test: inhibitors of Rev binding to RRE RNA, dose response, biochemical, fluorescence polarization, HIV-1 (AID 434976); set-up: species or system Human immunodeficiency virus 1
[11] = target: Female germline-specific tumor suppressor gld-1 (Caenorhabditis elegans, UniProt Q17339); test: inhibitors of GLD-1 binding to TGE RNA, dose response, biochemical, fluorescence polarization, C. elegans (AID 2802);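 further: fluorescence polarization of labeled TGE RNA bound by purified gld-1 protein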
CHO = test: cytotoxicity in TLR9-MyD88 CHO cells, dose response, cytotoxicity control for TLR9-MyD88 binding inhibitor project, cell-based, luminescence (AID 588339); format: functional, hamster; conditions: Cricetulus griseus;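 further: CHO cells stably coexpressing TLR9 and MyD88 fusions from primary screen; compound exposure lasted 48 hours before viability readout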
Beta Lactamase = Beta Lactamase (Pseudomonas aeruginosa, UniProt Q932Y6); test: beta-lactamase reporter inhibitor potency, dose response, artefact control for TLR9-MyD88 binding inhibitor project, BLA reporter cells, FRET fluorescence (AID 588341); format: cell-based;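 further: cell based assay in CHO-K1 cells stably expressing beta-lactamase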
[12] = target: T4, Polyadenylate-binding protein 1 (Homo sapiens, UniProt P11940); test: PABP1 MLLE–PAM2 interaction inhibitors, dose response, miRNA deadenylation inhibitor project, biochemical, fluorescence polarization, Cy5-PAM2 peptide, secondary (AID 602260); format: functional; conditions: read-out: IC50_Mean
[13] = target: T4, Polyadenylate-binding protein 1; test: PABP1 MLLE–PAM2 binding inhibitor potency, dose response, biochemical, fluorescence polarization, FITC-PAM2 peptide (AID 602259); format: functional; conditions: read-out: IC50_Mean
[14] = target: T5, RNA-binding protein pos-1 (Caenorhabditis elegans, UniProt G5EF15); test: inhibitors of POS-1/mex-3 RNA binding, dose response, biochemical, fluorescence polarization (AID 1964);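 further: purified POS-1 fused to maltose binding protein made in E. coli; potency of compounds blocking POS-1 binding to fluorescent RNA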
T5 sequence (G5EF15 whole entry): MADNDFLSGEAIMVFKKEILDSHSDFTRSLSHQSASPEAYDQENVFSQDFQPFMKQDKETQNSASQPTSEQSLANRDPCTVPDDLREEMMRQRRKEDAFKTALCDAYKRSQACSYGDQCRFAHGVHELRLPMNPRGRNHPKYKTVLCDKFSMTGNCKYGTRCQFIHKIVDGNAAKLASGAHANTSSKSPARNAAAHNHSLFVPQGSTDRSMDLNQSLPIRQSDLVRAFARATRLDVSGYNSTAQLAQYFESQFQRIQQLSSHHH

cells [15] = format: functional, cell-based
[16] = target: T6, Zinc finger protein mex-5 (Caenorhabditis elegans, UniProt Q9XUB2); test: MEX-5/TCR-2 RNA interaction inhibitors, dose response, biochemical, C. elegans, fluorescence polarization (AID 1960)
T6 sequence (Q9XUB2 whole entry): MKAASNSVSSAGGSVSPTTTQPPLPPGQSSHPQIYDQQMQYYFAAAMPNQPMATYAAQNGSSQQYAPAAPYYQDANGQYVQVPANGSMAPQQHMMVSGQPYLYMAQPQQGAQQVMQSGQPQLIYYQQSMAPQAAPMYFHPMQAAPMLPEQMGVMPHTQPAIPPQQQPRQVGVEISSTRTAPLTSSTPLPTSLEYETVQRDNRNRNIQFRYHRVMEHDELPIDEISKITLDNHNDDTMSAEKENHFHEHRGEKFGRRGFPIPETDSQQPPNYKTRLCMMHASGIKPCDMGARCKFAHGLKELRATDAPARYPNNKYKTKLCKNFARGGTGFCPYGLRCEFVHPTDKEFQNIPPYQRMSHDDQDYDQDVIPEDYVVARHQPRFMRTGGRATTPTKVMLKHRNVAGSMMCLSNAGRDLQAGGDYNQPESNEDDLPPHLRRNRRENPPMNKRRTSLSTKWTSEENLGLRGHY

Large T antigen = Large T antigen (Simian virus 40, UniProt P03070); format: functional, Betapolyomavirus macacae;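 further: Confirmatory-stage PubChem screen for compounds that inhibit SV40 T antigen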
cells [17] = format: functional, cell-based; remark: listed apart in the source
[18] = target: FAD-linked sulfhydryl oxidase ALR (Homo sapiens, UniProt P55789); test: inhibitors of human ALR sulfhydryl oxidase, dose response, biochemical, H2O2 detection, luminescence, cherry-pick (AID 493248)
Sequence of FAD-linked sulfhydryl oxidase ALR (P55789 whole entry): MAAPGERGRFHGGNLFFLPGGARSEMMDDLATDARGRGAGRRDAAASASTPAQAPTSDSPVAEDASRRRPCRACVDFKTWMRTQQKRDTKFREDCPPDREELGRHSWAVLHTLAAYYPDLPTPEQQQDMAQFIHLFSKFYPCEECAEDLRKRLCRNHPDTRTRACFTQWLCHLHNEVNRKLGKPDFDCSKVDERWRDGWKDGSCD

T4 sequence (P11940 whole entry): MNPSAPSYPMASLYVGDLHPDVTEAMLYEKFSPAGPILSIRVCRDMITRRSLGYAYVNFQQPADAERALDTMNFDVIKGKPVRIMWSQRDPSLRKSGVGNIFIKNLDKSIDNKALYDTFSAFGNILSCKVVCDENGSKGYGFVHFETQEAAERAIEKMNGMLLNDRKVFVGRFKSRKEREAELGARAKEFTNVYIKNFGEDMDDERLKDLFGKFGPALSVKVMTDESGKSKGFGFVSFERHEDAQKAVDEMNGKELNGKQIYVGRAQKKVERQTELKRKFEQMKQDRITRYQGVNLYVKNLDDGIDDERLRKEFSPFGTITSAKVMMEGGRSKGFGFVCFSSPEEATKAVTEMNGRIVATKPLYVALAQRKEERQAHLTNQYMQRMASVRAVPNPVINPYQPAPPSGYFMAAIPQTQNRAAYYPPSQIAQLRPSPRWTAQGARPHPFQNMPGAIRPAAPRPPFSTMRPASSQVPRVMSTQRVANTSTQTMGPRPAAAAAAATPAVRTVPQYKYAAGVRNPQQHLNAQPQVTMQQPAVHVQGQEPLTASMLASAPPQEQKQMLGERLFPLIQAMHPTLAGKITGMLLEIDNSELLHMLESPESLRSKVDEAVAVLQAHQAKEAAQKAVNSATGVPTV
Sequence of Aspartyl aminopeptidase (Q8I2J3 whole entry): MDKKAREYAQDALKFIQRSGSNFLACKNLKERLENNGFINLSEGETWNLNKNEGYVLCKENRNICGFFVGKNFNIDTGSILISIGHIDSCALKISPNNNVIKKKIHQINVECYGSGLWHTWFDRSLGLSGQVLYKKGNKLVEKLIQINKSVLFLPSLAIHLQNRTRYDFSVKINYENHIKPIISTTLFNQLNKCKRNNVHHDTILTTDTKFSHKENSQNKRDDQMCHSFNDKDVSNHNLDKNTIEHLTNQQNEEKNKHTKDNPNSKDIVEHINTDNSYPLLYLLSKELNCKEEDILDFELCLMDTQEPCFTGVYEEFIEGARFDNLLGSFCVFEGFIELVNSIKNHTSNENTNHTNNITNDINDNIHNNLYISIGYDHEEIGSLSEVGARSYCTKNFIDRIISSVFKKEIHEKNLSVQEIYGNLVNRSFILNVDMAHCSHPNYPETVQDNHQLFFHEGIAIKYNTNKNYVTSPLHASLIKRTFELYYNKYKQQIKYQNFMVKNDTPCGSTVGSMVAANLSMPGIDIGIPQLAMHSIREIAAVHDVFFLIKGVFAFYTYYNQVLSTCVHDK
Sequence of Procathepsin L (P07711 whole entry): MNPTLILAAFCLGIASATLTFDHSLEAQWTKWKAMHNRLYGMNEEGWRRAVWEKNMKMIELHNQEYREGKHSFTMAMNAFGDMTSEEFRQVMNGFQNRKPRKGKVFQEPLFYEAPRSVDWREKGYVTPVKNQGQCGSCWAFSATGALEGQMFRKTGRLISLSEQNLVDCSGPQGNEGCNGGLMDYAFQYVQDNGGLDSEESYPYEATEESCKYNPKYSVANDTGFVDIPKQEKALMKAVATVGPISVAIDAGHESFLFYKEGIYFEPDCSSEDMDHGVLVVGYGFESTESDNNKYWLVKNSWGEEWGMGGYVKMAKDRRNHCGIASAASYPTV
Sequence of Beta Lactamase (Q932Y6 whole entry): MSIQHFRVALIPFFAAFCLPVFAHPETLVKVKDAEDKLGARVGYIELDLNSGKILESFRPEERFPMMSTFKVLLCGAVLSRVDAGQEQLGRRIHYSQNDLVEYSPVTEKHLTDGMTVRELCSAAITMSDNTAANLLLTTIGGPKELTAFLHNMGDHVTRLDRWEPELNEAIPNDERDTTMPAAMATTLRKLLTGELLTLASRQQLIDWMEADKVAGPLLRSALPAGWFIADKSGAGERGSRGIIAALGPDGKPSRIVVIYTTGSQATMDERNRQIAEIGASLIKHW
Sequence of Serine/threonine-protein phosphatase PP1-alpha catalytic subunit (P62136 whole entry): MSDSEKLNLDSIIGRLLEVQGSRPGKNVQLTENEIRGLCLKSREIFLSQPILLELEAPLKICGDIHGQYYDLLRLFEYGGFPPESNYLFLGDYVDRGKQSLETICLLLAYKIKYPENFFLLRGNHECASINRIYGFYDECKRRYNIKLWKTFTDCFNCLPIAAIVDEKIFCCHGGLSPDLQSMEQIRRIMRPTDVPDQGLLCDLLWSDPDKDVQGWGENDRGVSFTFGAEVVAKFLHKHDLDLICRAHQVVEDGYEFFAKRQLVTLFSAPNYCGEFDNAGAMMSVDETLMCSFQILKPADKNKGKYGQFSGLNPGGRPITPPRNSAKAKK
Sequence of Large T antigen (P03070 whole entry): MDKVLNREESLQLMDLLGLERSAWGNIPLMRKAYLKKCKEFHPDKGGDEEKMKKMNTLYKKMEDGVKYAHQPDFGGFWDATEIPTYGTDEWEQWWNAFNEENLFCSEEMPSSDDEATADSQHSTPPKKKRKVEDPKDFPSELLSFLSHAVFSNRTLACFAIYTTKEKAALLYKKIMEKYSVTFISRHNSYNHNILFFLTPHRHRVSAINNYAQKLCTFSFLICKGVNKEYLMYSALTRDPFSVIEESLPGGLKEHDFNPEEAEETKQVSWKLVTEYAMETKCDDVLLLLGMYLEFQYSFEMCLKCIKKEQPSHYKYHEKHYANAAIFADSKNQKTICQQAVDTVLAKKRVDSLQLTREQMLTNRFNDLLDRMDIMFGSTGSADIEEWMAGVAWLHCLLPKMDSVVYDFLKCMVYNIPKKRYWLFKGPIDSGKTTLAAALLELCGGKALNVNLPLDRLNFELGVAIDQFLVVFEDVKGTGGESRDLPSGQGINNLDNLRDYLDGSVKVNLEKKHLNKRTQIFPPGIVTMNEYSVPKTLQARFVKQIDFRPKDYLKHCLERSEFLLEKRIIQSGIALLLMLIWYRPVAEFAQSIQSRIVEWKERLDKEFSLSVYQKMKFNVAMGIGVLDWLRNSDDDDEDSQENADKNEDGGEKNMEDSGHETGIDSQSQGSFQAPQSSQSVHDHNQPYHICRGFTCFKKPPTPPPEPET
Sequence of Female germline-specific tumor suppressor gld-1 (Q17339 whole entry, the tested form may be a part): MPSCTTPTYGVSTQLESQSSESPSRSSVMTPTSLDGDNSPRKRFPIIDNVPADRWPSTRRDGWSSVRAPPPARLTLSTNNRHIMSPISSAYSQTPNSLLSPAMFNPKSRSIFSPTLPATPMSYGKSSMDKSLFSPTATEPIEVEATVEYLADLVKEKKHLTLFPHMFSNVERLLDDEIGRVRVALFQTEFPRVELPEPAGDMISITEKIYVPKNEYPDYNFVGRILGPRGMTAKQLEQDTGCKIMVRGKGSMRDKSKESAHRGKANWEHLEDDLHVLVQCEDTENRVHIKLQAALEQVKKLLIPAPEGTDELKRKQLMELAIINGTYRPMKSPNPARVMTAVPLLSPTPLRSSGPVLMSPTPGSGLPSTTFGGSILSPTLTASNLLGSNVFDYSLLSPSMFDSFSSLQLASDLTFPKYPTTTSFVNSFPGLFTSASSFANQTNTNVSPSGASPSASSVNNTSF
Sequence of Protein Rev (P04618 whole entry): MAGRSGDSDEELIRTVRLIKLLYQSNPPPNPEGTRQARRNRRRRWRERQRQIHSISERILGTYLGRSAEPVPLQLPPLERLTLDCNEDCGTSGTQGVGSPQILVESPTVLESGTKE

With `CCOC(=O)c1cnc(-n2nc(C)cc2C)nc1NC(C)c1ccccc1` (stereo not drawn) the EC50 [1] was 5.04 µM (active), the IC50 [2] was 5.88 µM (active) and the EC50 [3] was 1.46 µM (active). The IC50 [4] was > 67 µM (not active), the EC50 [5] was > 60 µM (not active) and the EC50 (Streptococcus) was 5.89 µM (active). For the same molecule, the AC50 (INS1) was 4.89 µM (active).

For `O=C(/C=C/c1ccc(O)c(O)c1)NC(=O)c1ccccc1O`, the IC50 (Aspartyl aminopeptidase) was 1.47 µM (active), the IC50 (Procathepsin L) was > 59.6 µM (not active) and the IC50 [6] was 20.2 µM (active).

For `COc1ccc2[nH]c(Sc3c([N+](=O)[O-])nc(C)n3Cc3ccccc3)nc2c1`, the EC50 [7] was 9.43 µM (active), the EC50 [8] was 8.94 µM (active) and the EC50 [9] was 8.34 µM (active). For the same molecule, the IC50 [10] was > 80 µM (inactive).

In the case of `O=C(CN1C(=O)NC2(CCCCC2)C1=O)Oc1ccc2c(C(F)(F)F)cc(=O)oc2c1`, the IC50 (Protein Rev) is reported as 65.3 µM (not active), the IC50 [11] is reported as 4.07 µM (active) and the IC50 (CHO) is reported as > 49.7 µM (inactive). For the same molecule, the IC50 (Beta Lactamase) was 3.48 µM (active), the IC50 [12] was > 66 µM (inactive) and the IC50 [13] was 38.3 µM (inactive).

With `Oc1ccc(-c2cn3ccccc3n2)cc1O` the EC50 [14] was > 300 µM (not active), the IC50 (Aspartyl aminopeptidase) was 2.56 µM (active) and the EC50 (cells [15]) was > 350 µM (not active). The IC50 (Procathepsin L) was > 59.6 µM (not active), the EC50 [16] was 13.6 µM (active) and the IC50 (Large T antigen) was 5.28 µM (active). The EC50 (cells [17]) was 25.3 µM (active) and the AC50 [18] was 1.32 µM (active).
